Tested on: not listed separately
Test: Antiproliferative activity against human RXF393 cells assessed as cell growth at 10^-4 M after 48 hrs by sulforhodamine B assay
Format: functional
Settings: RXF 393, 48 h, read-out: Activity
Work on `CNC(=O)c1cc(Oc2ccc3nc(NC(=O)Nc4ccc(Cl)c(Cl)c4)sc3c2)ccn1` yielded a growth at 100 µM of -85%.

Tested on: not listed separately
Test: Antiproliferative activity against human DU145 cells assessed as cell growth at 10^-6 M after 48 hrs by sulforhodamine B assay
Format: functional
Settings: DU-145, 48 h, read-out: Activity
Work on `CNC(=O)c1cc(Oc2ccc3nc(NC(=O)Nc4ccc(Cl)c(Cl)c4)sc3c2)ccn1` yielded a growth at 1 µM of 97%.

Tested on: NCI-H522
Test: Antiproliferative activity against human NCI-H522 cells assessed as cell growth at 10^-4 M after 48 hrs by sulforhodamine B assay
Format: functional
Settings: NCI-H522, 48 h, read-out: Activity
Compound `CNC(=O)c1cc(Oc2ccc3nc(NC(=O)Nc4ccc(Cl)c(Cl)c4)sc3c2)ccn1` has a growth at 100 µM of 23%.

Tested on: not listed separately
Test: Antiproliferative activity against human PC3 cells assessed as cell growth at 10^-8 M after 48 hrs by sulforhodamine B assay
Format: functional
Settings: PC-3, 48 h, read-out: Activity
For `CNC(=O)c1cc(Oc2ccc3nc(NC(=O)Nc4ccc(Cl)c(Cl)c4)sc3c2)ccn1`, the growth at 0.01 µM was 96%.

Tested on: not listed separately
Test: Antiproliferative activity against human Hs 578T cells assessed as cell growth at 10^-7 M after 48 hrs by sulforhodamine B assay
Format: functional
Settings: read-out: Activity
`CNC(=O)c1cc(Oc2ccc3nc(NC(=O)Nc4ccc(Cl)c(Cl)c4)sc3c2)ccn1` gave a growth at 0.1 µM of 108%.

Tested on: Malme-3M
Test: Antiproliferative activity against human MALME-3M cells assessed as cell growth at 10^-8 M after 48 hrs by sulforhodamine B assay
Format: functional
Settings: read-out: Activity
`CNC(=O)c1cc(Oc2ccc3nc(NC(=O)Nc4ccc(Cl)c(Cl)c4)sc3c2)ccn1` showed a growth at 0.01 µM of 97%.

Tested on: SK-MEL-5
Test: Antiproliferative activity against human SK-MEL-5 cells assessed as cell growth at 10^-8 M after 48 hrs by sulforhodamine B assay
Format: functional
Settings: SK-MEL-5, 48 h, read-out: Activity
With `CNC(=O)c1cc(Oc2ccc3nc(NC(=O)Nc4ccc(Cl)c(Cl)c4)sc3c2)ccn1` the growth at 0.01 µM was 99%.

Tested on: ACHN
Test: Antiproliferative activity against human ACHN cells assessed as growth inhibition after 48 hrs by sulforhodamine B assay
Format: functional
Settings: not given
Work on `CNC(=O)c1cc(Oc2ccc3nc(NC(=O)Nc4ccc(Cl)c(Cl)c4)sc3c2)ccn1` yielded a GI50 of 2.1 µM, an LC50 of over 100 µM and a TGI of 5.56 µM.

Tested on: MDA-MB-468
Test: Antiproliferative activity against human MDA-MB-468 cells assessed as cell growth at 10^-4 M after 48 hrs by sulforhodamine B assay
Format: functional
Settings: MDA-MB-468, 48 h, read-out: Activity
Work on `CNC(=O)c1cc(Oc2ccc3nc(NC(=O)Nc4ccc(Cl)c(Cl)c4)sc3c2)ccn1` yielded a growth at 100 µM of -44%.

Tested on: EKVX
Test: Antiproliferative activity against human EKVX cells assessed as cell growth at 10^-8 M after 48 hrs by sulforhodamine B assay
Format: functional
Settings: read-out: Activity
Compound `CNC(=O)c1cc(Oc2ccc3nc(NC(=O)Nc4ccc(Cl)c(Cl)c4)sc3c2)ccn1` has a growth at 0.01 µM of 89%.

Tested on: not listed separately
Test: Antiproliferative activity against human MOLT4 cells assessed as cell growth at 10^-7 M after 48 hrs by sulforhodamine B assay
Format: functional
Settings: MOLT-4, 48 h, read-out: Activity
Work on `CNC(=O)c1cc(Oc2ccc3nc(NC(=O)Nc4ccc(Cl)c(Cl)c4)sc3c2)ccn1` yielded a growth at 0.1 µM of 96%.

Tested on: EKVX
Test: Antiproliferative activity against human EKVX cells assessed as cell growth at 10^-6 M after 48 hrs by sulforhodamine B assay
Format: functional
Settings: read-out: Activity
For `CNC(=O)c1cc(Oc2ccc3nc(NC(=O)Nc4ccc(Cl)c(Cl)c4)sc3c2)ccn1`, the growth at 1 µM was 86%.

Tested on: MDA-MB-435
Test: Antiproliferative activity against human MDA-MB-435 cells assessed as growth inhibition after 48 hrs by sulforhodamine B assay
Format: functional
Settings: MDA-MB-435, 48 h
Compound `CNC(=O)c1cc(Oc2ccc3nc(NC(=O)Nc4ccc(Cl)c(Cl)c4)sc3c2)ccn1` has a GI50 of 2.02 µM and a TGI of 4.62 µM.

Same assay, conditions: MDA-MB-435, 48 h, read-out: LC50 (the source's name)
With `CNC(=O)c1cc(Oc2ccc3nc(NC(=O)Nc4ccc(Cl)c(Cl)c4)sc3c2)ccn1` the CC50 was over 100 µM.

Tested on: not listed separately
Test: Antiproliferative activity against human SW620 cells assessed as cell growth at 10^-7 M after 48 hrs by sulforhodamine B assay
Format: functional
Settings: SW-620, 48 h, read-out: Activity
`CNC(=O)c1cc(Oc2ccc3nc(NC(=O)Nc4ccc(Cl)c(Cl)c4)sc3c2)ccn1` gave a growth at 0.1 µM of 115%.

Tested on: not listed separately
Test: Antiproliferative activity against human SF539 cells assessed as cell growth at 10^-8 M after 48 hrs by sulforhodamine B assay
Format: functional
Settings: SF-539, 48 h, read-out: Activity
Work on `CNC(=O)c1cc(Oc2ccc3nc(NC(=O)Nc4ccc(Cl)c(Cl)c4)sc3c2)ccn1` yielded a growth at 0.01 µM of 92%.

Tested on: not listed separately
Test: Antiproliferative activity against human UO31 cells assessed as growth inhibition after 48 hrs by sulforhodamine B assay
Format: functional
Settings: UO-31, 48 h
Work on `CNC(=O)c1cc(Oc2ccc3nc(NC(=O)Nc4ccc(Cl)c(Cl)c4)sc3c2)ccn1` yielded a GI50 of 2.08 µM and a TGI of 3.96 µM.

Same assay, conditions: UO-31, 48 h, read-out: LC50 (the source's name)
For `CNC(=O)c1cc(Oc2ccc3nc(NC(=O)Nc4ccc(Cl)c(Cl)c4)sc3c2)ccn1`, the CC50 was 7.56 µM.

Molecular target: RAF proto-oncogene serine/threonine-protein kinase (Homo sapiens, UniProt P04049)
Sequence (P04049 whole entry): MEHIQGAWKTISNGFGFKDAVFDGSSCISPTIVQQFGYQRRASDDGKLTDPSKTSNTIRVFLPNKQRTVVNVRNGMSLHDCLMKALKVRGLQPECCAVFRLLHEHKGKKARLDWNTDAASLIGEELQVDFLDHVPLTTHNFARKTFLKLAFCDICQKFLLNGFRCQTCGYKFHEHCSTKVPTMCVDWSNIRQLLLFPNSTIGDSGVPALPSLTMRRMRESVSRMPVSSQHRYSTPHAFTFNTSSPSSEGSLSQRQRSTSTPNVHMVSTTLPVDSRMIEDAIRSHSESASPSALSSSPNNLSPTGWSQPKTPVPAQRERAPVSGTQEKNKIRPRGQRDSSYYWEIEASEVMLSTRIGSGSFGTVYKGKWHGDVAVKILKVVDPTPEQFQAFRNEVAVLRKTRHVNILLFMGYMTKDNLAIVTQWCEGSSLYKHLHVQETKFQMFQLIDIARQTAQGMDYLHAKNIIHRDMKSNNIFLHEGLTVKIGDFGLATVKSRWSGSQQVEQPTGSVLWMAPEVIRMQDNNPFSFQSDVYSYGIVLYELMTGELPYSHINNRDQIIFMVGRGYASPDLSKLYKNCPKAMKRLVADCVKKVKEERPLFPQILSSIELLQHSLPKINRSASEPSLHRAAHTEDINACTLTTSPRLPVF
Test: Inhibition of human CRAF at 10 uM measured after 40 mins by scintillation counting
Settings: not given
In the case of `CNC(=O)c1cc(Oc2ccc3nc(NC(=O)Nc4ccc(Cl)c(Cl)c4)sc3c2)ccn1`, the inhibition was 98.6%.

Tested on: not listed separately
Test: Antiproliferative activity against human COLO205 cells assessed as cell growth at 10^-8 M after 48 hrs by sulforhodamine B assay
Format: functional
Settings: COLO 205, 48 h, read-out: Activity
`CNC(=O)c1cc(Oc2ccc3nc(NC(=O)Nc4ccc(Cl)c(Cl)c4)sc3c2)ccn1` gave a growth at 0.01 µM of 102%.
